Source: US7037919B1, “Tetrahydroquinoline derivatives” (Kaken Pharmaceutical Co. Ltd., priority 1999, dated 2006)

What was measured:
[1] = system: orchiectomized (ORX) rats; experiment: Action of increasing prostate weight and bone mineral density in orchiectomized (ORX) rats (Test Example 4); assay type: in vivo, rat; conditions: 10 mg/kg s.c. once daily, 5 days weekly, 4 weeks, ORX SD rats, Mean ± SD
Description: Action of Increasing Prostate Weight and Bone Mineral Density in Orchiectomized (ORX) Rats
Orchiectomy was performed in 12-week-old male SD rats. From the next day postoperation, the positive control compound dihydrotestosterone (DHT, 10 mg/kg) and the compound of the present invention (Example 60, 60 mg/kg), each dissolved in a 5% dimethyl sulfoxide-containing olive oil solution, were subcutaneously injected once daily, 5 days weekly, for 4 weeks. On the next day after final administration, the wet weight of the ventral prostate was measured to evaluate the AR agonistic effect of the compound of the present invention. On the next day following final administration, moreover, the right femur was removed, and fixed overnight in a 10% neutrally buffered formalin solution. Then, the bone mineral density at the site ranging from the diaphysis to the proximal end was measured by the method of double energy X-ray absorption using a bone mineral content-measuring machine (Aloka, DCS-600) to evaluate increasing action of bone mineral density of the compound of the present invention.

AR = experiment: Assignment of compounds as having AR agonistic or AR antagonistic action (description, no method given); conditions: compounds named as usable for category A diseases
[2] = biological target: T1, Rat androgen receptors (rat AR) (Rattus norvegicus, UniProt P15207); experiment: Test for competitive binding to rat androgen receptors; conditions: 3H-testosterone, rat prostate AR fraction; hydroxyflutamide taken as 100
T1 construct: from tissue; host or cells: prostate of orchiectomized male SD rats (100,000 x g supernatant)
T1 sequence (P15207 1-902): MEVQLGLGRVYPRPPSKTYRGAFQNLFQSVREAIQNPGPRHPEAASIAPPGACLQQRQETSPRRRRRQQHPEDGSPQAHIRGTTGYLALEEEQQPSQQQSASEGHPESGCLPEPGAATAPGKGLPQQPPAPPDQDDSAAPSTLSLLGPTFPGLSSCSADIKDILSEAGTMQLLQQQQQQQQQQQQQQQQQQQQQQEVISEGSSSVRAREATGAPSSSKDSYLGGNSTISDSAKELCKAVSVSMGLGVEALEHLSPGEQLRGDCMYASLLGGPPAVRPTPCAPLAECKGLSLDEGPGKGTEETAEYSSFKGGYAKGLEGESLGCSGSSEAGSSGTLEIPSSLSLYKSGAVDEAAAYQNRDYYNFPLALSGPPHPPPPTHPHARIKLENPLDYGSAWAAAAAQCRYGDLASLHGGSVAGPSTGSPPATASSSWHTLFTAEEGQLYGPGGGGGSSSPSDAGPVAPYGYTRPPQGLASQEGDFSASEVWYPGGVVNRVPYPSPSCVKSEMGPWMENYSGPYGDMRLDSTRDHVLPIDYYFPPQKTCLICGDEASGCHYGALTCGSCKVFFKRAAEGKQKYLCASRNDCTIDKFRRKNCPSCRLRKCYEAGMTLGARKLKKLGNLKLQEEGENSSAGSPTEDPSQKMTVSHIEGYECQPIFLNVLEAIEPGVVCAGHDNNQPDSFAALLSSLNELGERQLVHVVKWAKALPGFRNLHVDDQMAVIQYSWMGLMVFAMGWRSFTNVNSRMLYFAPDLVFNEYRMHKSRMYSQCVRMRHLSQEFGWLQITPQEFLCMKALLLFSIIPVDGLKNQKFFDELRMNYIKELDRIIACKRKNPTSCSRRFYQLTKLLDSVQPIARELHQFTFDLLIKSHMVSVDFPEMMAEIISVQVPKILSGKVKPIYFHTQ
Description: Test for Competitive Binding to Rat Androgen Receptors (Rat AR)
Preparation of rat AR fraction: Prostates were harvested into ice-cooled ET buffer (10 mM Tris, 1 mM EDTA, 5 mM DTT, 10 mM sodium molybdate, pH 7.4) 3 days after orchiectomy in 11-week-old male SD rats. The prostate was finely cut, and ET buffer was added, whereafter the mixture was homogenized using a homogenizer. The homogenate was ultracentrifuged (100,000×g, 60 min, 4° C.), and the supernatant was used as a rat AR fraction (hereinafter referred to as ARF).
Binding test: ^3H-testosterone (hereinafter referred to as ^3H-T) was diluted with ET buffer. Dihydrotestosterone (DHT) was prepared so as to have a concentration (final concentration 1 μM) 400 times the maximum concentration of ^3H-T (2.5 nM). The ^3H-T solution was added to a 1.5 ml tube containing DHT, no DHT, or the test compound with a varying concentration. Further, 200 μg ARF was added to adjust the final volume to 100 μl. The mixture was incubated for 2 hours at 4° C., and then 300 μl of a 0.05% dextran T70-1.0% activated carbon solution was added. The mixture was further incubated for 15 minutes in ice to remove the free ^3H-T. After centrifugation (4° C., 2,500 rpm, 5 min), 275 μl of the supernatant was harvested into a liquid scintillation vial, and 2 ml of clear-sol was added. The mixture was stirred, allowed to stand, and measured for ^3H radioactivity with a liquid scintillation counter.
Calculation of the relative binding inhibition rate: The binding inhibition rate (%) of the compound according to the present invention was calculated from the following equation, and the 50% inhibition concentration (IC50) was calculated by the probit analysis of the concentration-binding inhibition curve.
The relative binding inhibition rate (RBA: Relative Binding Affinity) was obtained from the following equation (Endocrinology 138, 863-870, 1997): RBA=100×(IC50 of hydroxyflutamide)/(IC50 of the compound of the present invention) • RBA's of the compounds of the present invention, calculated as above, are shown in Table 10.

orchiectomized rats = experiment: Action of increasing prostate weight in orchiectomized rats (Test Example 2, printed 21); assay type: in vivo, rat; conditions: for Weight of prostate: orchiectomized SD rats, Mean ± SD
Description: Action of Increasing Prostate Weight in Orchiectomized Rats
Testes were removed from 8- to 12-week-old male SD rats. From 5 days postoperation, the compound of the present invention (3, 30 mg/kg), suspended in a 0.5% methyl cellulose solution, was subcutaneously injected once daily for a consecutive week, and 6 days weekly for 8 consecutive weeks. On the next day after final administration, the wet weight of the ventral prostate was measured to evaluate the in vivo AR agonistic effect of the compound of the present invention.

[3] = system: orchiectomized (ORX) rats; experiment: Action of increasing prostate weight in orchiectomized (ORX) rats (Test Example 3); assay type: in vivo, rat; conditions: 30 mg/kg s.c. once daily for 8 days, ORX SD rats, Mean ± SD
Description: Action of Increasing Prostate Weight in Rats After Orchiectomized (ORX) Rats
Orchiectomy was performed in 8-week-old male SD rats. From 5 days postoperation, the compound of the present invention (Example 60, 30 mg/kg), dissolved in a 5% dimethyl sulfoxide-containing olive oil solution, was subcutaneously injected once daily for 8 days. On the next day after final administration, the wet weight of the ventral prostate was measured to evaluate the AR agonistic effect of the compound of the present invention.

Row | SMILES | RBA (Relative Binding Affinity = 100 x IC50 of hydroxyflutamide / IC50 of the compound) [2] | other results
1 | C[C@]12CCC(=O)C[C@@H]1CC[C@@H]1[C@@H]2CC[C@]2(C)[C@@H](O)CC[C@@H]12 [DHT, dihydrotestosterone, reference compound] | – | Prostate weight [1]: 150 ± 14 mg/body weight 100 g; Bone mineral density ([1]; right femur): 131 ± 7 mg/cm^2
2 | CC(C)(CO)C1Nc2ccc([N+](=O)[O-])cc2C2C=CCC21 (stereo not drawn) [Example 1, 2-methyl-2-(8-nitro-3a,4,5,9b-tetrahydro-3H-cyclopenta[c]quinolin-4-yl)-propan-1-ol] | 4751 | AR agonistic action (AR): AR agonistic action; Weight of prostate (orchiectomized rats; 1-week treatment, 3 mg/kg s.c. once daily): 18 ± 4 mg/body weight (100 g); Weight of prostate (orchiectomized rats; 1-week treatment, 30 mg/kg s.c. once daily): 26 ± 3 mg/body weight (100 g); Weight of prostate (orchiectomized rats; 8-week treatment, 3 mg/kg s.c. 6 days weekly): 52 ± 8 mg/body weight (100 g); Weight of prostate (orchiectomized rats; 8-week treatment, 30 mg/kg s.c. 6 days weekly): 97 ± 14 mg/body weight (100 g); Prostate weights in comparison with the comparative example (orchiectomized rats; consecutively administered for 1 week (3, 30 mg/kg s.c.)): significantly increased prostate weights; Prostate weight relative to normal control (orchiectomized rats; duration of treatment extended to 8 weeks (3, 30 mg/kg s.c.)): restored the atrophied prostate up to the level of the normal control
3 | CC(C)(CO)C1Nc2cccc([N+](=O)[O-])c2C2C=CCC21 (stereo not drawn) [Example 7] | 65 | –
4 | COC(C)(C)C1Nc2ccc([N+](=O)[O-])cc2C2C=CCC21 (stereo not drawn) [Example 19] | 57 | –
5 | CC(C)(OCc1ccccc1)C1Nc2ccc([N+](=O)[O-])cc2C2C=CCC21 (stereo not drawn) [Example 21] | 74 | –
6 | CC(=O)OCC(C)(C)C1Nc2ccc([N+](=O)[O-])cc2C2C=CCC21 (stereo not drawn) [Example 23] | – | AR agonistic action (AR): AR agonistic action
7 | CC(C)(C)OC(=O)NCC(C)(C)C1Nc2ccc([N+](=O)[O-])cc2C2C=CCC21 (stereo not drawn) [Example 25] | – | AR agonistic action (AR): AR agonistic action
8 | CC(C)(CCl)C1Nc2ccc([N+](=O)[O-])cc2C2C=CCC21 (stereo not drawn) [Example 29] | 75 | –
9 | CC(C)(CO)C1Nc2ccc(C#N)cc2C2C=CCC21 (stereo not drawn) [Example 35, 4-(2-Hydroxy-1,1′-dimethyl-ethyl)-3a,4,5,9b-tetrahydro-3H-cyclopenta[c]quinoline-8-carbonitrile] | 236 | –
10 | CC(=O)OCC(C)(C)C1Nc2ccc(C#N)cc2C2C=CCC21 (stereo not drawn) [Example 40, acetic acid 2-(8-cyano-3a,4,5,9b-tetrahydro-3H-cyclopentatc[c]quinolin-4-yl)-2-methylpropyl ester] | 96 | –
11 | CC(=O)NCC(C)(C)C1Nc2ccc([N+](=O)[O-])cc2C2C=CCC21 (stereo not drawn) [Example 52] | 478 | –
12 | CC(C)C(=O)NCC(C)(C)C1Nc2ccc([N+](=O)[O-])cc2C2C=CCC21 (stereo not drawn) [Example 53] | 55 | –
13 | CC(C)(CNC(=O)c1ccccc1)C1Nc2ccc([N+](=O)[O-])cc2C2C=CCC21 (stereo not drawn) [Example 56] | – | AR agonistic action (AR): AR agonistic action
14 | CC(C)(CNS(C)(=O)=O)C1Nc2ccc([N+](=O)[O-])cc2C2C=CCC21 (stereo not drawn) [Example 59] | 2288 | –
15 | CC(C)(CNS(=O)(=O)c1ccc(F)cc1)C1Nc2ccc([N+](=O)[O-])cc2C2C=CCC21 (stereo not drawn) [Example 61] | 169 | –
16 | CC(=O)Nc1ccc(S(=O)(=O)NCC(C)(C)C2Nc3ccc([N+](=O)[O-])cc3C3C=CCC32)cc1 (stereo not drawn) [Example 63] | 580 | –
17 | CC(C)NC(=O)NCC(C)(C)C1Nc2ccc([N+](=O)[O-])cc2C2C=CCC21 (stereo not drawn) [Example 64, 1-isopropyl-3-[2-methyl-2-(8-nitro-3a,4,5,9b-tetrahydro-3H-cyclopenta[c]quinolin-4-yl)-propyl]urea] | 298 | –
18 | Cc1cccc(NC(=O)NCC(C)(C)C2Nc3ccc([N+](=O)[O-])cc3C3C=CCC32)c1 (stereo not drawn) [Example 65] | – | AR agonistic action (AR): AR agonistic action
19 | CC(C)(CNC(=O)Nc1ccc([N+](=O)[O-])cc1)C1Nc2ccc([N+](=O)[O-])cc2C2C=CCC21 (stereo not drawn) [Example 66] | – | AR agonistic action (AR): AR agonistic action
20 | CNC(=S)NCC(C)(C)C1Nc2ccc([N+](=O)[O-])cc2C2C=CCC21 (stereo not drawn) [Example 67] | – | AR agonistic action (AR): AR agonistic action
21 | CCNC(=S)NCC(C)(C)C1Nc2ccc([N+](=O)[O-])cc2C2C=CCC21 (stereo not drawn) [Example 68] | 491 | –
22 | CC(C)NC(=S)NCC(C)(C)C1Nc2ccc([N+](=O)[O-])cc2C2C=CCC21 (stereo not drawn) [Example 69] | 244 | Weight of prostate [3]: 21 ± 2 mg/body weight 100 g
23 | CC(=O)SCC(C)(C)C1Nc2ccc([N+](=O)[O-])cc2C2C=CCC21 (stereo not drawn) [Example 76, thioacetic acid S-[2-methyl-2-(8-nitro-3a,4,5,9b-tetrahydro-3H-cyclopenta[c]quinolin-4-yl)propyl]ester] | 131 | –
24 | CC(C)(O)C(=O)Nc1ccc([N+](=O)[O-])c(C(F)(F)F)c1 [Hydroxyflutamide, hydroxyflutamide, reference compound] | 100 | –
